Laboratory results from the NIST ThermoML archive (doi:10.1021/je1002434).

How the values were obtained:
[1] = for surface tension liquid-gas: Maximal bubble pressure; for mass density: 101 kPa, Liquid, Buoyancy - hydrostatic balance with magnetic suspension - one sinker
[2] = wn = mass fraction of the nth substance listed; conditions: for surface tension liquid-gas: Maximal bubble pressure; for mass density: 101 kPa, Liquid, Buoyancy - hydrostatic balance with magnetic suspension - one sinker

CCCn1cc[n+](C)c1.N[C@@H](CCC(=O)O)C(=O)[O-]
[1]
Conditions | mass density [kg/m3] | surface tension liquid-gas [mN/m]
298.15 K | 1229.2 | 60.8
318.15 K | 1218.6 | 54.7
323.15 K | 1215.9 | 53.2
328.15 K | 1213.2 | 51.8
333.15 K | 1210.6 | 50.1
338.15 K | 1208.2 | 48.7
343.15 K | 1205.3 | –

CCCn1cc[n+](C)c1.N[C@@H](CCC(=O)O)C(=O)[O-] + O
[2]
Conditions | mass density, w2 = 0.00841 [kg/m3] | mass density, w2 = 0.01002 [kg/m3] | mass density, w2 = 0.01126 [kg/m3] | mass density, w2 = 0.01281 [kg/m3] | mass density, w2 = 0.01404 [kg/m3] | surface tension liquid-gas, w2 = 0.0089 [mN/m] | surface tension liquid-gas, w2 = 0.012 [mN/m] | surface tension liquid-gas, w2 = 0.0151 [mN/m] | surface tension liquid-gas, w2 = 0.0192 [mN/m] | surface tension liquid-gas, w2 = 0.0222 [mN/m]
318.15 K | 1204.8 | 1202 | 1200.3 | 1197.4 | 1195.6 | 55.2 | 55.4 | 55.5 | 55.7 | 56
323.15 K | 1202.2 | 1199.3 | 1197.6 | 1194.7 | 1193 | 53.8 | 54 | 54.2 | 54.4 | 54.7
328.15 K | 1199.5 | 1196.7 | 1195 | 1192 | 1190.4 | 52.5 | 52.6 | 52.8 | 53.1 | 53.4
333.15 K | 1196.9 | 1194 | 1192.3 | 1189.4 | 1187.7 | 50.7 | 51.2 | 51.4 | 51.7 | 51.9
338.15 K | 1194.3 | 1191.4 | 1189.6 | 1186.7 | 1185 | 49.4 | 49.9 | 50.2 | 50.4 | 50.7
343.15 K | 1191.6 | 1188.7 | 1187 | 1184.1 | 1182.4 | – | – | – | – | –
